How the values were obtained:
Format in all cases: ADME
Cytochrome P450 2B6 [1] = biological target: T1, Cytochrome P450 2B6 (Homo sapiens, UniProt P20813); assay: Inactivation of C-terminal His4-tagged human CYP2B6 lacking 21 N-terminal residues expressed in Escherichia coli C41 (DE3) assessed as decreases in fluorescence intensity of 7-hydroxy-4-trifluoromethylcoumarin up to 30 mins at 37 degC; details: 0.5 h
T1 sequence (P20813 whole entry): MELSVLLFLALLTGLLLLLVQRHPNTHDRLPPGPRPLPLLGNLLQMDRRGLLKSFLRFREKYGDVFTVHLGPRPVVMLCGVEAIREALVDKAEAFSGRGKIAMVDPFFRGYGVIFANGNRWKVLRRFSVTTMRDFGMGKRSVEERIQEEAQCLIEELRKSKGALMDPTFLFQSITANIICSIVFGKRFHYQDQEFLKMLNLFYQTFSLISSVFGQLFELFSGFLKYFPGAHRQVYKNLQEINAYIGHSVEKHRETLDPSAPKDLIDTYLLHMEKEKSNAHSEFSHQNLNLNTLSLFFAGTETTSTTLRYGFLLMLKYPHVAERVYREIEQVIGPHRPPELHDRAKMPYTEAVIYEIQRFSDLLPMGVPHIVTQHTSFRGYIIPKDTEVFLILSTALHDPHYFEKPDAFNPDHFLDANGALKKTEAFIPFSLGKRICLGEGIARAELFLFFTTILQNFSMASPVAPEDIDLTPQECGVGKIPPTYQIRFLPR

CYP2B6 = biological target: T2, CYP2B6 (Homo sapiens, UniProt P20813); assay: Inactivation of C-terminal His4-tagged human CYP2B6 lacking 21 N-terminal residues assessed as decrease in enzyme catalytic activity at 100 uM for 15 mins by spectral analysis in presence of NADPH
T2 sequence (P20813 whole entry): T1 sequence (P20813 whole entry)

Cytochrome P450 2B6 [2] = biological target: T1, Cytochrome P450 2B6; assay: Irreversible inactivation of C-terminal His4-tagged human CYP2B6 lacking 21 N-terminal residues assessed as decrease in CO difference spectrum measured after overnight dialysis at 100 uM for 15 mins by spectral analysis in presence of NADPH; details: 0.25 h
Cytochrome P450 2B6 [3] = biological target: T1, Cytochrome P450 2B6; assay: Inactivation of C-terminal His4-tagged human CYP2B6 lacking 21 N-terminal residues expressed in Escherichia coli C41 (DE3) assessed as decreases in fluorescence intensity of 7-hydroxy-4-trifluoromethylcoumarin at 5 to 100 uM at 37 degC; details: TDE = time-dependent effect
Cytochrome P450 2B6 [4] = biological target: T1, Cytochrome P450 2B6; assay: Irreversible inactivation of C-terminal His4-tagged human CYP2B6 lacking 21 N-terminal residues assessed as decrease in enzyme catalytic activity measured after overnight dialysis at 100 uM for 15 mins by spectral analysis in presence of NADPH; details: 0.25 h

Compound: CCC(=O)C(CC(C)N(C)C)(c1ccccc1)c1ccccc1 (racemic) [METHADONE]
- inhibition (INH) (Cytochrome P450 2B6 [1]): Dose-dependent effect
- inhibition at 0.25 h, 100 µM (CYP2B6): 58%
- inhibition (INH) (Cytochrome P450 2B6 [2]): Active
- inhibition (INH) (Cytochrome P450 2B6 [3]): tde
- inhibition (INH) (Cytochrome P450 2B6 [4]): Active

Source: ChEMBL document CHEMBL3526042, “Mechanism-based inactivation of cytochrome P450 2B6 by methadone through destruction of prosthetic heme” (Drug Metab Dispos, 2012)
